The source of these data is PubChem BioAssay (NCI).

Molecules are shown by their SMILES.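 Test compounds were applied to cells in 96-well plates for 48 hours at 5 doses. TGI: concentration producing complete growth inhibition.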

Among the test systems are SK-MEL-28 melanoma; M14 melanoma; OVCAR-5 ovarian; SK-MEL-2 melanoma; SR leukemia; HCT-116 colon; RPMI-8226 leukemia; NCI-H522 lung; NCI-H460 lung; HL-60(TB) leukemia; MDA-MB-231 breast; BT-549 breast; DU-145 prostate; RXF 393 renal; PC-3 prostate; MCF7 breast.
Common to all, as to experiment: DTP human tumour cell line panel, 48 h

On to `COc1cc(C=O)c(-c2c(C=O)ccc3c2OCO3)c(OC)c1OC`, for which the total growth inhibition concentration (TGI) in the experiment with SK-MEL-28 melanoma, in the experiment on M14 melanoma, with OVCAR-5 ovarian, in the experiment with SK-MEL-2 melanoma, with SR leukemia and in the experiment on HCT-116 colon was > 100 µM throughout. For the same compound, the TGI was > 100 µM in the experiment on RPMI-8226 leukemia, > 100 µM in the experiment on NCI-H522 lung, > 100 µM with NCI-H460 lung and 81.1 µM with HL-60(TB) leukemia.

Regarding `Cc1ccc2c(ccc(/C=C/c3ccc(O)c4ncccc34)[n+]2C)c1`, the concentration for total growth inhibition (TGI) with SK-MEL-28 melanoma is 33.1 µM; in the experiment on MDA-MB-231 breast, > 61.8 µM; in the experiment with M14 melanoma it was 40.3 µM; with OVCAR-5 ovarian it was 53.3 µM; in the experiment on BT-549 breast it was > 29 µM; in the experiment with SK-MEL-2 melanoma it was 36.3 µM. Besides, the TGI is > 35.7 µM with SR leukemia; 24.3 µM with HCT-116 colon; > 57.3 µM in the experiment with DU-145 prostate; 37.8 µM in the experiment on RXF 393 renal; 70.2 µM in the experiment with RPMI-8226 leukemia; 27.1 µM with NCI-H522 lung. For the same compound, the values for the TGI in the experiment with PC-3 prostate, in the experiment with NCI-H460 lung and with HL-60(TB) leukemia were > 49.8 µM, 30.3 µM and > 100 µM, respectively.

With `O=[N+]([O-])c1ccc(CSc2nncc3[nH]cnc23)cc1`, the total growth inhibition concentration (TGI) in the experiment with SK-MEL-28 melanoma, in the experiment on MDA-MB-231 breast, with M14 melanoma, in the experiment on OVCAR-5 ovarian, in the experiment with BT-549 breast and with SK-MEL-2 melanoma was > 100 µM each time. Further, the TGI in the experiment on SR leukemia, with HCT-116 colon, in the experiment with RPMI-8226 leukemia, in the experiment with MCF7 breast, in the experiment on NCI-H522 lung and in the experiment with PC-3 prostate was > 100 µM in each case. Further, in the experiment with HL-60(TB) leukemia, the total growth inhibition concentration (TGI) was > 100 µM.

Consider `CCOC(=O)CCC(NC(=O)c1ccc(Nc2nc3ccc(C(F)(F)F)cc3nc2-c2ccccc2)cc1)C(=O)OCC` (stereo not given), for which the concentration for total growth inhibition (TGI) is > 100 µM in the experiment with SK-MEL-28 melanoma; 58.9 µM with MDA-MB-231 breast; 46.2 µM in the experiment with M14 melanoma; > 100 µM with OVCAR-5 ovarian; > 100 µM in the experiment with BT-549 breast; 49.7 µM in the experiment with SK-MEL-2 melanoma. Besides, the TGI with SR leukemia, in the experiment with HCT-116 colon, in the experiment with DU-145 prostate, in the experiment with RXF 393 renal, in the experiment on RPMI-8226 leukemia and with MCF7 breast was > 100 µM throughout. The TGI in the experiment with NCI-H522 lung is 55.2 µM; with NCI-H460 lung, > 100 µM; with HL-60(TB) leukemia, > 100 µM.

With `CC(=O)SCCC(NC(=S)Nc1ccccc1)P(=O)(Oc1ccccc1)Oc1ccccc1` (stereo not given), the TGI in the experiment with SK-MEL-28 melanoma, in the experiment on MDA-MB-231 breast, in the experiment with M14 melanoma, with OVCAR-5 ovarian, in the experiment on SR leukemia and in the experiment on HCT-116 colon was > 100 µM throughout. The TGI in the experiment with DU-145 prostate, in the experiment on RXF 393 renal, with MCF7 breast, in the experiment with NCI-H522 lung, in the experiment with NCI-H460 lung and in the experiment on HL-60(TB) leukemia was > 100 µM each time.

Regarding `CCOC1C(Br)Cn2c(=O)c3cc4ccccc4cc3c(=O)n2C1C` (stereo not given), the concentration for total growth inhibition (TGI) in the experiment on SK-MEL-28 melanoma, in the experiment with M14 melanoma, in the experiment on OVCAR-5 ovarian, in the experiment with SK-MEL-2 melanoma, with SR leukemia and in the experiment with HCT-116 colon was > 100 µM in each case. For the same compound, the TGI in the experiment with RXF 393 renal, in the experiment on RPMI-8226 leukemia, in the experiment on NCI-H460 lung and in the experiment on HL-60(TB) leukemia was > 100 µM throughout.

For the compound `COC(=O)[C@@H]1C=C[C@H](OC2OC(COC(C)=O)C(OC(C)=O)C(OC(C)=O)C2OC(C)=O)n2c(=O)n(-c3ccccc3)c(=O)n21` (stereo not given in full), the total growth inhibition concentration (TGI) in the experiment with SK-MEL-28 melanoma turned out to be 5.59 µM; in the experiment on MDA-MB-231 breast, 8.42 µM; in the experiment with M14 melanoma, 5.77 µM; with OVCAR-5 ovarian, 12.6 µM; in the experiment with BT-549 breast it was 6.26 µM; in the experiment on SK-MEL-2 melanoma, 5.05 µM. The total growth inhibition concentration (TGI) was > 24.9 µM in the experiment on SR leukemia; 3.82 µM with HCT-116 colon; 15.7 µM in the experiment with DU-145 prostate; 4.12 µM with RXF 393 renal; 6.05 µM with RPMI-8226 leukemia; 1.07 µM in the experiment on NCI-H522 lung. The TGI was 7.67 µM with PC-3 prostate, 35.8 µM with NCI-H460 lung and 4.39 µM in the experiment on HL-60(TB) leukemia.

For the compound `S=C(N/N=C/c1ccccn1)N1CCCCC1`, the total growth inhibition concentration (TGI) was > 100 µM in the experiment on SK-MEL-28 melanoma; 1.36 µM in the experiment with M14 melanoma; > 100 µM in the experiment with OVCAR-5 ovarian; 32.5 µM in the experiment on BT-549 breast; 18.1 µM with SK-MEL-2 melanoma; 0.217 µM in the experiment on SR leukemia. In addition, the TGI with HCT-116 colon was 10.9 µM; with DU-145 prostate, > 100 µM; with RXF 393 renal, 3.94 µM; in the experiment with RPMI-8226 leukemia, 1.68 µM; in the experiment on MCF7 breast, 50 µM; with NCI-H522 lung, 25.7 µM. In addition, the TGI was > 100 µM with PC-3 prostate, 0.457 µM with NCI-H460 lung and 0.264 µM in the experiment with HL-60(TB) leukemia.

Consider `Nn1c(C23CC4CC(CC(C4)C2)C3)n[nH]c1=S`, for which the total growth inhibition concentration (TGI) in the experiment on SK-MEL-28 melanoma, in the experiment on MDA-MB-231 breast, in the experiment on M14 melanoma, in the experiment on OVCAR-5 ovarian, in the experiment with SK-MEL-2 melanoma and with SR leukemia was > 100 µM each time. Moreover, the TGI in the experiment with HCT-116 colon, in the experiment on DU-145 prostate, with RXF 393 renal, in the experiment with RPMI-8226 leukemia, in the experiment with NCI-H522 lung and in the experiment on PC-3 prostate was > 100 µM in each case. Besides, the total growth inhibition concentration (TGI) in the experiment on NCI-H460 lung and in the experiment with HL-60(TB) leukemia was > 100 µM in each case.

Take `COc1ccc(-c2c(C(C)=O)c(-c3ccccc3)n(C3OC(CO)C(O)C(O)C3O)c(=S)c2C#N)cc1` (stereo not given): the TGI in the experiment on SK-MEL-28 melanoma, in the experiment on MDA-MB-231 breast, with M14 melanoma, in the experiment on OVCAR-5 ovarian, in the experiment on HCT-116 colon and in the experiment with DU-145 prostate was > 100 µM in each case. In addition, the TGI in the experiment on RXF 393 renal, in the experiment on MCF7 breast, with NCI-H522 lung, with NCI-H460 lung and in the experiment on HL-60(TB) leukemia was > 100 µM throughout.

One may read the TGI as the concentration at which net growth stops.
